Test systems include DU-145 prostate; KM12 colon; COLO 205 colon; RPMI-8226 leukemia; SK-MEL-2 melanoma; HCT-116 colon; SN12C renal; SF-295 CNS; ACHN renal; A549 NSCLC.
Test in all cases: NCI tumour cell line growth inhibition, 48 h

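Dose response: 5 concentrations. Exposure: 48 h. Format: 96-well plates. Endpoint: linear interpolation; highest concentration if not reached. Here, GI50 denotes the concentration required for 50% inhibition of growth. Definition used: TGI = concentration required for complete inhibition of growth.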

As for `CCC(=C(c1ccc(OCCN(CC)CC)cc1)c1ccc(OCCN(CC)CC)cc1)c1ccc(Cl)cc1`, the GI50 in the test with DU-145 prostate is 619 nM; with KM12 colon, 611 nM; in the test with COLO 205 colon it was 631 nM; with RPMI-8226 leukemia, 714 nM; in the test on SK-MEL-2 melanoma it was 634 nM; in the test on HCT-116 colon, 508 nM. For the same compound, the GI50 was 606 nM in the test on SN12C renal, 615 nM in the test with SF-295 CNS, 596 nM with ACHN renal and 638 nM in the test on A549 NSCLC. Also, the TGI came out at 1190 nM in the test with DU-145 prostate; 1180 nM with KM12 colon; 1320 nM with COLO 205 colon; 1640 nM in the test with RPMI-8226 leukemia; 1270 nM in the test on SK-MEL-2 melanoma; 995 nM in the test on HCT-116 colon. Also, the TGI in the test with SN12C renal was determined as 1240 nM; with SF-295 CNS it was 1190 nM; in the test with ACHN renal it was 1080 nM; with A549 NSCLC it was 1310 nM.
With `O=C1OC(c2ccccc2)=N/C1=C\c1ccc(N(CCCl)CCCl)cc1`, the TGI in the test on DU-145 prostate, in the test on KM12 colon, in the test with COLO 205 colon, with RPMI-8226 leukemia, in the test on SK-MEL-2 melanoma and in the test with HCT-116 colon was above 100000 nM throughout. Besides, the TGI in the test with SN12C renal, in the test on SF-295 CNS, in the test with ACHN renal and with A549 NSCLC was above 100000 nM throughout.

The record behind these values is PubChem BioAssay (NCI).
